# According to patent US10080779B2, “Method for increasing the expression of anti-microbial peptides by keratinocytes comprising administering a composition comprising IL-17, TNF-alpha and OSM” (Universite D'Angers, priority 2004, dated 2018):
# Tested on: NHEK
# Assay: S100 proteins expression in NHEK (Western blot)
# Assay type: cell-based, human
# Settings: 10 ng/ml OSM, day 2 and day 4
# Protocol: […] Cell lysis was performed with 50 mM Tris HCl pH 7.4, 150 mM NaCl, 1 mM EDTA, 1% Triton, 1% sodium deoxycholate, 0.1% SDS, 1 mM PMSF, 1 mM sodium orthovanadate, 1% protease inhibitors. S100A7, S100A8 and S100A9 were detected by immunochemistry as described above. Ponceau red staining was used to control loading homogeneity.
substance,measurement,value
"OSM: human recombinant oncostatin M, cytokine of the IL-6 family","S100A7, S100A8, S100A9 protein expression",increased expression of studied proteins
